Measurements as given in patent US10016427B2, “Hydrochloride salt of((1S,2S,4R)-4-{4-[(1S)-2,3-dihydro-1H-inden-1-ylamino]-7H-pyrrolo[2,3-D]pyrimidin-7-YL}-2-hydroxycyclopentyl) methyl sulfamate” (Millennium Pharmaceuticals, Inc., priority 2009, dated 2018).
Where a name gives a salt, the structure may show the parent alone.

Columns and labels:
[1] = Solid state storage stability (Peak Area % measured by HPLC); type: physicochemical; settings: for Peak Area % 15 days / Peak Area % Initial / Peak Area % 6 weeks: solid state; for Peak Area % Initial: -20° C. freezer; for stability on storage: compared with the potassium salt
From the text: The following table summarizes stability data obtained (Peak Area % measured by HPLC) for solid state ((1S,2S,4R)-4-{4-[(1S)-2,3-dihydro-1H-inden-1-ylamino]-7H-pyrrolo[2,3-d]pyrimidin-7-yl}-2-hydroxycyclopentyl)methyl sulfamate.

[2] = Solubility of Form 1 in water; type: physicochemical
From the text: The resulting solution has a pH of about 2.33.

Peak Area % 15 days ([1]; 5° C. refrigerator) [%]	Peak Area % 15 days ([1]; 40° C./75% RH) [%]	Peak Area % 15 days ([1]; 60° C./75% RH) [%]	Peak Area % Initial [1] [%]	stability on storage [1]	solubility ([2]; pH 2.33, thermodynamic from solid, in water) [mg/mL]	pH of the resulting solution ([2]; solution resulting from dissolution in water)	Peak Area % 6 weeks ([1]; 5° C. refrigerator) [%]	Peak Area % 6 weeks ([1]; 40° C./75% RH) [%]	Peak Area % 6 weeks ([1]; 60° C./75% RH) [%]	SMILES
96.4	94.5	93.2	96.0							NS(=O)(=O)OC[C@@H]1C[C@@H](n2ccc3c(N[C@H]4CCc5ccccc54)ncnc32)C[C@@H]1O [free base (amorphous), ((1S,2S,4R)-4-{4-[(1S)-2,3-dihydro-1H-inden-1-ylamino]-7H-pyrrolo[2,3-d]pyrimidin-7-yl}-2-hydroxycyclopentyl)methyl sulfamate, reference compound]
98.2	97.8	88.6	98.3	increased stability on storage						NS(=O)(=O)OC[C@@H]1C[C@@H](n2ccc3c(N[C@H]4CCc5ccccc54)ncnc32)C[C@@H]1O [HCl Salt Form 2, ((1S,2S,4R)-4-{4-[(1S)-2,3-dihydro-1H-inden-1-ylamino]-7H-pyrrolo[2,3-d]pyrimidin-7-yl}-2-hydroxycyclopentyl)methyl sulfamate hydrochloride Form 2]
97.6	88.7	38.3	96.9							NS(=O)(=O)OC[C@@H]1C[C@@H](n2ccc3c(N[C@H]4CCc5ccccc54)ncnc32)C[C@@H]1O.[K] [potassium salt (amorphous), potassium salt of ((1S,2S,4R)-4-{4-[(1S)-2,3-dihydro-1H-inden-1-ylamino]-7H-pyrrolo[2,3-d]pyrimidin-7-yl}-2-hydroxycyclopentyl)methyl sulfamate, reference compound]
			99.2	increased stability on storage	~7.8	about 2.33	99.3	98.7	91.3	NS(=O)(=O)OC[C@@H]1C[C@@H](n2ccc3c(N[C@H]4CCc5ccccc54)ncnc32)C[C@@H]1O [HCl Salt Form 1, ((1S,2S,4R)-4-{4-[(1S)-2,3-dihydro-1H-inden-1-ylamino]-7H-pyrrolo[2,3-d]pyrimidin-7-yl}-2-hydroxycyclopentyl)methyl sulfamate hydrochloride Form 1]
